Test results published in patent publication US20250241926A1, “HETEROCYCLIC COMPOUNDS FOR USE IN THE TREATMENT OF CANCER” (ARTIOS PHARMA LIMITED, priority 2021, published 2025).

target: T1, Human Polθ polymerase domain (aa1820-2590) (Homo sapiens, UniProt O75417); assay: Polθ Polymerase Domain Kinact/Kl Assay (PicoGreen); format: biochemical; conditions: covalent inhibitors, kobs vs [I] fit, 0.8 nM Polθ, 100 nM DNA substrate
T1 construct: Human Polθ polymerase domain (aa1820-2590) was expressed in E. Coli; made in house; host or cells: E. coli
T1 sequence (O75417 1820-2590): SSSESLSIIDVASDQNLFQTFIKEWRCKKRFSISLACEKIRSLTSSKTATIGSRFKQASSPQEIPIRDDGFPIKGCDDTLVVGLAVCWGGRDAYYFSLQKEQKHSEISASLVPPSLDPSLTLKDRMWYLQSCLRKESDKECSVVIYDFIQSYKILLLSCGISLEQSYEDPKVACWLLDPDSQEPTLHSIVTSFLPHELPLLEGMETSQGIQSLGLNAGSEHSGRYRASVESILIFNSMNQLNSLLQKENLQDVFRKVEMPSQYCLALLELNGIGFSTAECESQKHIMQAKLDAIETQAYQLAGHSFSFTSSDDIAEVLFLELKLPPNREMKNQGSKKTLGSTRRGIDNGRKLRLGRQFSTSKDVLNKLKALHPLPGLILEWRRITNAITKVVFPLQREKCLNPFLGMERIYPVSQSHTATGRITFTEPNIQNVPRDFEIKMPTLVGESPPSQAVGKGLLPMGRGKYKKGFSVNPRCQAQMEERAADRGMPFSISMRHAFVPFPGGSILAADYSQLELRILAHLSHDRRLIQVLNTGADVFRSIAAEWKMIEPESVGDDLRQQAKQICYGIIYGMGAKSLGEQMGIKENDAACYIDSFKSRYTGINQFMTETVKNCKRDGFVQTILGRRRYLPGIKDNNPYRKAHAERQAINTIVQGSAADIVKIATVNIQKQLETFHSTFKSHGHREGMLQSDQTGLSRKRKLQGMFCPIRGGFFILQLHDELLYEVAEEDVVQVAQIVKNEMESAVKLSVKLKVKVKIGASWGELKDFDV
Experimental: Polθ Polymerase Domain Kinact/Kl Assay
A PicoGreen assay was used to measure the Kinact and Kl values of covalent compounds that inhibit the activity of Polθ in vitro.
Human Polθ polymerase domain (aa1820-2590) was expressed in E. Coli, purified, aliquoted and stored at −80° C. until required. Polθ substrate was generated from a 1.2:1 mix of DNA II Short to DNA II Long to give a final concentration of […] substrate in annealing buffer (20 mM Tris pH 7.5, 50 mM NaCl). The substrate was heated in 50 mL aliquots to 95° C. in a heating block for 5 min before the heating block switched off, the reaction left to cool to rt and stored at −20° C. until required.
Assay measurements were performed with 1× buffer comprising 25 mM Tris pH 7.5, 12.5 mM NaCl, […], 5% (v/v) glycerol, 0.01% v/v Triton x-100, 0.1 mg/ml BSA, 1 mM DTT. Test compounds were prepared by dilution in 100% DMSO to give a 12 μM intermediate stock of each (100× final top concentration). 100 nL of 23× 1:1.5-fold serial dilutions and a DMSO only control were dispensed using the Tecan dispenser into Greiner 384 well black low volume plates (product code 784076). DMSO concentration was maintained at 1% of the final assay volume by back filling with DMSO.
2× Working stock of substrate (200 nM of DNA substrate and […] dNTPs) and enzyme (1.4 nM Polθ) were made up in assay buffer. 5 μL/well of both enzyme and substrate 2× solutions were dispensed using a Tempest dispenser (Formulatrix) into assay plates that had been pre-dispensed with compound to give a final assay concentration of 100 nM DNA substrate, […] dNTPs and 0.8 nM Polθ. To stop the reaction, […] of a solution containing 25 mM Tris-HCl pH 7.5 and 20 mM EDTA was added at […] (t=0, 2.5, 5, 7.5, 10, 12.5, 15, 20, 25, 30, 35, 40, 45, 50, 55 and 60 min) using the Tempest's time delay function. The plates were covered during the time course to prevent evaporation. After completing the assay, 5 μL of detection reagent (25 mM Tris-HCl pH 7.5 and 2.5% (v/v) PicoGreen) was dispensed into the wells using a Tempest liquid handler (Formulatrix) and plates subsequently read on the CLARIOstar Plus (BMG Labtech) using the default optical settings for fluorescein and the auto gain/focus settings.
All data analysis was carried out using GraphPad Prism V. 8 (GraphPad Software Inc, San Diego, CA) Time course data for each inhibitor concentration was fitted to equation 1 to determine kobs values.^1 Any time points where the control (DMSO alone) reaction was no longer linear were excluded from the analysis.
A secondary plot of kobs vs [I] is used to determine the Kinact and Kl parameters (for a 2-step covalent inhibitor) by fitting to equation 2.1
[formula] • 1) Evaluation of Enzyme Inhibitors in Drug Discovery (Ch9), R. A Copeland, Wiley, 2nd Edition 2013.

| Molecule | kinact/KI [M⁻¹ s⁻¹] |
| --- | --- |
| 2-(((3S)-6-(2-(7- ((E)-4-(Dimethyl- amino)but-2-eno- yl)-1-oxo-2,7- diazaspiro[4.4] nonan-2-yl)ethyl)- 7-fluoro-1- methyl-2-oxo- 1,2,3,4,5,6-hexa- hydrobenzo[b] [1,4]diazocin-3- yl)amino)-6-meth- yl-4-(trifluoro- methyl)nicotino- nitrile [Example 47] | 380000 |
| 2-(((S)-6-(2-((1R,4R)-5- (1-Acryloylazetidin-3-yl)- 2,5-diazabicyclo[2.2.1] heptan-2-yl)ethyl)-7- fluoro-1-methyl-2-oxo- 1,2,3,4,5,6-hexahydro- benzo[b][1,4]diazocin-3- yl)amino)-6-methyl-4- (trifluoromethyl)nicotino- nitrile [Example 18] | 230000 |
| 2-(((S)-6-(2-((1S,4S)-5- (1-Acryloylazetidin-3-yl)- 2,5-diazabicyclo[2.2.1] heptan-2-yl)ethyl)-7- fluoro-1-methyl-2-oxo- 1,2,3,4,5,6-hexahydro- benzo[b][1,4]diazocin-3- yl)amino)-6-methyl-4- (trifluoromethyl)nicotino- nitrile [Example 19] | 160000 |
| 2-(((S)-6-(2-((R)-4-(1- Acryloylazetidin-3-yl)-2- methylpiperazin-1-yl)eth- yl)-7-fluoro-1-methyl-2- oxo-1,2,3,4,5,6-hexahydro- benzo[b][1,4]diazocin-3- yl)amino)-6-methyl-4- (trifluoromethyl)nicotino- nitrile [Example 15] | 280000 |
| 2-(((S)-6-(2-((S)-4-(1- Acryloylazetidin-3-yl)-2- methylpiperazin-1-yl)eth- yl)-7-fluoro-1-methyl-2- oxo-1,2,3,4,5,6-hexahydro- benzo[b][1,4]diazocin-3- yl)amino)-6-methyl-4- (trifluoromethyl)nicotino- nitrile [Example 14] | 780000 |
| Cc1cc(C(F)(F)F)c(C#N)c(N[C@H]2CCN(CC(O)CN3CCN(C(=O)/C=C/CN(C)C)CC3)c3c(F)cccc3N(C)C2=O)n1 (mixture of isomers) [Example 32A, 2-(((S)-6-((S/R)-3-(4-((E)-4-(Dimethylamino)but-2-enoyl)piperazin-1-yl)-2-hydroxypropyl)-7-fluoro-1-methyl-2-oxo-1,2,3,4,5,6-hexahydrobenzo[b][1,4]diazocin-3-yl)amino)-6-methyl-4-(trifluoromethyl)nicotinonitrile] | 770000 |
| C=CC(=O)N1CCN(CC(O)CN2CC[C@H](Nc3nc(C)cc(C(F)(F)F)c3C#N)C(=O)N(C)c3ccc(F)cc32)CC1 (mixture of isomers) [Example 33A, 2-(((S)-6-((S/R)-3-(4-Acryloylpiperazin-1-yl)-2-hydroxypropyl)-8-fluoro-1-methyl-2-oxo-1,2,3,4,5,6-hexahydrobenzo[b][1,4]diazocin-3-yl)amino)-6-methyl-4-(trifluoromethyl)nicotinonitrile] | 150000 |
| Cc1cc(C(F)(F)F)c(C#N)c(N[C@H]2CCN(CC(O)CN3CCN(C(=O)/C=C/CN(C)C)CC3)c3cc(F)ccc3N(C)C2=O)n1 (mixture of isomers) [Example 34A, 2-(((S)-6-((S/R)-3-(4-((E)-4-(Dimethylamino)but-2-enoyl)piperazin-1-yl)-2-hydroxypropyl)-8-fluoro-1-methyl-2-oxo-1,2,3,4,5,6-hexahydrobenzo[b][1,4]diazocin-3-yl)amino)-6-methyl-4-(trifluoromethyl)nicotinonitrile] | 190000 |
| C=CC(=O)N1CC(N2CC(=O)N(C)C(CN3CC[C@H](Nc4nc(C)cc(C(F)(F)F)c4C#N)C(=O)N(C)c4cccc(F)c43)C2)C1 (mixture of isomers) [Example 58A, 2-(((S)-6-(((S/R)-4-(1-Acryloylazetidin-3-yl)-1-methyl-6-oxopiperazin-2-yl)methyl)-7-fluoro-1-methyl-2-oxo-1,2,3,4,5,6-hexahydrobenzo[b][1,4]diazocin-3-yl)amino)-6-methyl-4-(trifluoromethyl)nicotinonitrile] | 60000 |
| C=CC(=O)N1CCN2CCN(CCN3CC[C@H](Nc4nc(C)cc(C(F)(F)F)c4C#N)C(=O)N(C)c4cccc(F)c43)CC2C1 (mixture of isomers) [Example 72B, 2-(((S)-6-(2-((S/R)-8-acryloyloctahydro-2H-pyrazino[1,2-a]pyrazin-2-yl)ethyl)-7-fluoro-1-methyl-2-oxo-1,2,3,4,5,6-hexahydrobenzo[b][1,4]diazocin-3-yl)amino)-6-methyl-4-(trifluoromethyl)nicotinonitrile] | 630000 |

same assay, conditions: covalent inhibitors, kobs vs [I] fit, 0.8 nM Polθ, 100 nM DNA substrate, read-out: Kinact/KI

| Molecule | kinact/KI [M⁻¹ s⁻¹] |
| --- | --- |
| CO[C@H]1CN(C(=O)/C=C/CN(C)C)C[C@@H]1C(=O)N(C)CCN1CC[C@H](Nc2nc(C)cc(C(F)(F)F)c2C#N)C(=O)N(C)c2cccc(F)c21 (relative stereo) [Example 28, (rel-3S,4R)—N-(2-((S)-4-((3-Cyano-6-methyl-4-(trifluoromethyl)pyridin-2-yl)amino)-10-fluoro-6-methyl-5-oxo-3,4,5,6-tetrahydrobenzo[b][1,4]diazocin-1(2H)-yl)ethyl)-1-((E)-4-(dimethylamino)but-2-enoyl)-4-methoxy-N-methylpyrrolidine-3-carboxamide] | 560000 |
| CO[C@H]1CN(C(=O)/C=C/CN(C)C)C[C@@H]1COCCN1CC[C@H](Nc2nc(C)cc(C(F)(F)F)c2C#N)C(=O)N(C)c2cccc(F)c21 (relative stereo) [Example 48, 2-(((S)-6-(2-(((rel-3R,4R)-1-((E)-4-(Dimethylamino)-but-2-enoyl)-4-methoxypyrroli-din-3-yl)methoxy)-ethyl)-7-fluoro-1-methyl-2-oxo-1,2,3,4,5,6-hexa-hydrobenzo[b] [1,4]diazocin-3-yl)amino)-6-meth-yl-4-(trifluoro-methyl)nicotino-nitrile] | 680000 |
| Cc1cc(C(F)(F)F)c(C#N)c(N[C@H]2CCN(CC(O)CN3CCN(C(=O)/C=C/CN(C)C)CC3)c3c(F)cccc3N(C)C2=O)n1 (single isomer, unassigned) [Example 32B] | 1e+06 |
| C=CC(=O)N1CCN(CC(O)CN2CC[C@H](Nc3nc(C)cc(C(F)(F)F)c3C#N)C(=O)N(C)c3ccc(F)cc32)CC1 (single isomer, unassigned) [Example 33B] | 120000 |
| Cc1cc(C(F)(F)F)c(C#N)c(N[C@H]2CCN(CC(O)CN3CCN(C(=O)/C=C/CN(C)C)CC3)c3cc(F)ccc3N(C)C2=O)n1 (single isomer, unassigned) [Example 34B] | 680000 |
| C=CC(=O)N1CC(N2CC(=O)N(C)C(CN3CC[C@H](Nc4nc(C)cc(C(F)(F)F)c4C#N)C(=O)N(C)c4cccc(F)c43)C2)C1 (single isomer, unassigned) [Example 58B] | 40000 |
